Measurements published in article PMC11134608, “UBR5 forms ligand-dependent complexes on chromatin to regulate nuclear hormone receptor stability” (Molecular cell, 2023).

Tests used:
ER [1] = assay: ER degradation after RNF111 or UBR5 knockdown (reporter K562; T47D western); format: cell-based, human; conditions: K562 ER-GFP, shUBR5 / sgRNF111, Figure S8C, D
Experimental: Cells were analyzed for GFP vs mCherry expression.
Protein concentration was quantified via Pierce BCA Protein Assay Kit (ThermoFisher, 23225), and equal amounts of lysates were run on either SDS-PAGE 3–8% Tris-Acetate or 4–12% Bis-Tris Protein Gels (NuPAGE, ThermoFisher), then transferred to a PVDF membrane (Biorad, Wet Transfer System). Membranes were blocked for 30 minutes to 1 hour at room temperature in Odyssey Blocking Buffer/PBS (LI-COR Biosciences), and incubated with primary antibodies at 4 °C overnight. Stained membranes were washed three times in Tris-buffered saline with Tween 20 (TBS-T) and incubated for 1 hour at room temperature with secondary IRDye-conjugated antibodies (LI-COR Biosciences). Membranes were washed three times in TBS-T before imaging (Odyssey Imaging System, LI-COR Biosciences).

ER [2] = conditions: cited from earlier work
Source text: SERDs are a class of molecules targeting the ER for the treatment of breast cancer. […] Given that UBR5 is similarly recruited to the NR hydrophobic cleft, we hypothesized that fulvestrant and other SERDs may employ a different mechanism for ER degradation. […] One of the best understood SERDs, fulvestrant, drastically remodels the hydrophobic cleft[16],[17] in a manner incompatible with UBR5 or NCOA binding. […] Strikingly, this correlates with clinical utility, hallmarked by the wide use of fulvestrant and recent approval of elacestrant,[53] both of which employ RNF111, in contrast to UBR5 SERDs (Table S2), none of which have been approved for clinical use. The heterogeneity of ER transcriptional pro ...

ER and RNF111 [3] = assay: Co-immunoprecipitation of FLAG-RNF111 and ER-GFP in 293T; conditions: ± MG132
Experimental: (B) ER reporter degradation following 1 μM of specified SERD treatment. […] UBR5 is highlighted in blue, RNF111, CRBN, VHL are highlighted in red. (D) Western blots of T47D cells transduced with sgRNAs against RNF111 treated with or without fulvestrant. […] (NS, not significant, *p < 0.05, **p < 0.005, ***p < 0.0005, ****p < 0.00005, error bars represent SEM.)
Reporter cells (up to 100 million) were treated with ligand (ATRA, dexamethasone) and allowed to incubate for different time points. […] Lysates were incubated with GFP-Trap Magnetic Agarose beads (ChromoTek, GTMA-20) overnight at 4°C on a rotator. Beads were magnetically removed and washed three times with Pierce IP Lysis Buffer with ligand added before boiling in 1x NuPAGE LDS Sample Buffer (ThermoFischer, NP0007). […] Experiments were repeated and representative images are shown.

ER and RNF111 [4] = assay: BRET assay of RNF111 and ER; format: cell-based, human
Source text: Bioluminescence resonance energy transfer (BRET) experiments were done using the NanoBRET PPI kit (Promega, N1821) according to manufacturer’s instructions.

ER reporter = ER reporter degradation; format: cell-based, human; conditions: 1 μM (legend, SERDs)
Experimental: Reporter cell lines were seeded in triplicate at a density of 1 million cells/ml in 100 μl per well in a 96 well plate and measured once. Ligand was added by Digital Dispenser (Tecan), and incubated at 37°C for the appropriate time before reading by flow cytometry. Cells were analyzed for GFP vs mCherry expression. GFP expression was normalized to mCherry signal and ligand treatments were compared to DMSO controls.

[5] = system: ER reporter (E3 ligase dependence); assay: Targeted CRISPR screens, ER reporter K562 cells: E3 ligase used; format: cell-based, human; conditions: for E3 ligase used for ER degradation: K562 ER reporter, CRISPR screen; for E3 Ligase (Table S2): Supplemental Table S2
Experimental: To characterize the UPS pathway components involved in SERD-induced ER degradation, we performed CRISPR screens with our ER reporter in the presence multiple SERDs: fulvestrant, GDC-0927, elacestrant, giredestrant, camizestrant, amcenestrant, AZD-9496, brilanestrant, and LSZ-102. […] Taken together, these findings indicate that different classes of SERDs engage distinct ubiquitin ligases and degradation pathways to target ER.
The UPS and tiling CRISPR functional genomics screen was performed following previously described methods.[22] Briefly, the UPS CRISPR library targets 713 E1, E2, E3 ubiquitin ligases, and deubiquitinases and includes controls genes with a total of 2852 guide RNAs, cloned into the pXPR003 backbone. The UBR5 Tiling screen was created by CRISPR-SURF.[29] Viruses were produced in a T-175 format and ten percent by volume of the library virus was added to reporter cell lines in triplicates for transduction. Transduced cells were allowed to recover and expand for nine days, then treated with indicated ligand. Top and bottom 5% of cells by GFP signal were sorted for a total of at least 100,000 cells per replicate. Samples were processed as previously described.[22]
Reporter cell lines were treated with ATRA or 9-cis RA, and then sorted into four populations by eGFP/mCherry fluorescence ratios (Gates A-D), corresponding to the bottom and top 5–10% respectively (Figure S1D).[22],[23] Sorted cells were pelleted, lysed, and processed according to previous studies.[22] Briefly sgRNAs were amplified in two PCRs via Titanium Taq (Takara Bio 639210), Titanium Taq Buffer and 800uM dNTP mix and eight staggered forward primers. The first PCR also contained 200 nM SBS3-Stagger-pXPR003 forward primer and 200 nM SBS12-pXPR003 reverse primer (cycles: 5 minutes at 94°C, 15 × (30 sec at 94°C, 15 sec at 58°C, 30 sec at 72°C), 2 minutes at 72°C). Illumina adapters and barcodes were added in the second PCR (200 nM P5-SBS3 forward primer, 200 nM P7-barcode-SBS12 reverse primer). Samples were pooled and purified by agarose gel-electrophoresis (Qiagen) and NaOAc/isopropanol precipitation. Amplified guides were quantified by next-generation sequencing (Genomics Platform, Broad Institute), and analyzed for enrichment in Gate A over Gate D, representing degradation rescue.

ER and UBR5 = assay: Co-immunoprecipitation of ER-GFP and UBR5 in K562; format: cell-based, human; conditions: K562 ER-GFP, with MG132, 16 h
Source text: Blotting was done as described above.
Fulvestrant GDC-0927 Elacestrant Giredestrant Camizestrant Amcenestrant […]
log2 Ratio log2 Ratio log2 Ratio log2 Ratio log2 Ratio log2 Ratio […]
Amcenestrant Camizestrant GiredestrantBrilanestrant Fulvestrant ElacestrantAmcenestrant Camizestrant Giredestrant Brilanestrant […]
50 FulvestrantBrilanestrant
Figure S8. Non-endogenousligands recruitdifferent E3 ligases to induce ER degradation,Related to Figure 6 […]
VHL are highlighted in red. (C) Degradation (GFP/mCherry) of ER-GFP in K562 reporter cell lines treated with shRNAs targeting UBR5 and the specified SERDs or ER PROTACs. (D) Degradation (GFP/mCherry) of ER-GFP in K562 reporter cell lines treated with sgRNAs targeting RNF111 and the specified SERDs or ER PROTACs. (E) Western blots of T47D cells […]
treated with or without Brilanestrant. (G) Bioluminescence Resonance Energy Transfer (BRET) assay of ER, treated +/- fulvestrant or brilanestrant. (n=6 two sided t-test) (H) Western blots of ER co-immunoprecipitations from K562 ER-GFP reporter cells treated with brilanestrant and MG132 for 16 hours, and blotted with antibodies specific for GFP, and UBR5 as indicated. NS, not […]

SMILES | regulated class of ER degradation (RNF111 or UBR5) (ER [1]) | ER degradation (literature) (ER [2]; ref [17], [53]) | ER transcriptional profile following SERD treatment (ER [2]; ref [17],[55]) | effect on helix 12 and ER hydrophobic cleft (ER [2]; ref [54]) | association of RNF111 with ER by co-immunoprecipitation (ER and RNF111 [3]) | ER-RNF111 BRET, significance (mBU) (ER and RNF111 [4]; Figure S8G, n = 6 two sided t-test) | association of RNF111 with ER by BRET (ER and RNF111 [4]; n = 6) | ER reporter degradation (ER reporter) | E3 ligase used for ER degradation [5] | E3 Ligase (Table S2) [5] | ER and UBR5 interaction by co-immunoprecipitation (ER and UBR5)
C[C@]12CC[C@@H]3c4ccc(O)cc4C[C@@H](CCCCCCCCC[S+]([O-])CCCC(F)(F)C(F)(F)F)[C@H]3[C@@H]1CC[C@@H]2O (stereo partly drawn) [fulvestrant] | RNF111 Regulated | lead to ER degradation | most antagonistic of tested SERDs | destabilize helix 12 and block the ER hydrophobic cleft, preventing coactivation | induces association of RNF111 with ER | * (*p < 0.05) | induces association of RNF111 with ER | induced ER reporter degradation | employed a different E3 ligase, RNF111 | RNF111 | 
CC/C(=C(/c1ccc(/C=C/C(=O)O)cc1)c1ccc2[nH]ncc2c1)c1ccc(F)cc1Cl [brilanestrant] | UBR5 Regulated |  |  |  |  |  |  | induced ER reporter degradation | required UBR5 for degradation | UBR5 | increased ER and UBR5 interactions
